Laboratory results as given in article PMC13298843, “Substituent size versus metal binding of inhibitors with variants of influenza endonuclease^” (Journal of inorganic biochemistry, 2025).

Assays:
Assay type in all cases: binding, influenza A/California/04/2009(H1N1)
Conditions in all cases: 200 µM
WT PAN endonuclease = WT PAN endonuclease (Influenza A virus, UniProt C3W5S0, DEL52-64/INS51G, form not given)
[1] = biological target: I38T mutant PAN endonuclease (Influenza A virus, UniProt C3W5S0, DEL52-64/I38T/INS51G, form not given)
[2] = biological target: E23K mutant PAN endonuclease (Influenza A virus, UniProt C3W5S0, DEL52-64/E23K/INS51G, form not given)

Structure (SMILES): CSc1ccccc1-c1cc(=O)c(O)c(C(=O)O)[nH]1 [Compound 3]
- WT ΔTm (thermal shift) (WT PAN endonuclease): 10.89 ± 0.12 °C
- I38T ΔTm (thermal shift) [1]: 10.86 ± 0.12 °C
- E23K ΔTm (thermal shift) [2]: 7.21 ± 0.15 °C
